Reference: patent US20070178458A1, “Methods of diagnosis and prognosis of ovarian cancer II” (priority 2003, published 2007)

Key:
KIAA1983 mRNA expression = assay: Change in KIAA1983 expression after treatment with methyl transferase inhibitor, quantitative RT-PCR; type: cell-based, human; conditions: 1 μM for 72 hours, relative to GAPDH
Method: (§1) FIG. 5 is a graphical representation showing the change In expression of KIAA1983 in epithelial ovarian cancer cell lines following treatment with the methyl transferase inhibitor 5-AZA (1 μM) for 72 hours, as determined by quantitative RT-PCR. The non-transformed cell line HOSE 6-3 was used as a control. Ovarian cancer cell lines were IGROV1, TOV21 G, OV90 and CAOV3. The relative amount of KIAA1983 mRNA in each cell line before (filled) and after (unfilled) treatment with methylation inhibitor was determined by comparison to a standard housekeeping gene (GAPDH), and is expressed as a fold change in expression level following treatment.
Total RNA was isolated from the normal and tumour cell lines, reverse transcribed into cDNA and used as template in a quantitative PCR using a LightCycler system (Roche Diagnostics). The relative amount of each gene product was determined by comparison to a standard housekeeping gene (GAPDH).
Thus, KIAA1983 is susceptible to gene silencing by hypermethylation thereby contributing to its reduced expression in epithelial ovarian cancers.

MGC1136 expression = assay: Change in MGC1136 expression after treatment with methylation inhibitor, quantitative RT-PCR; type: cell-based, human; conditions: 1 μM for 72 hours, adjusted for GAPDH
Method: as §1
FIG. 9 is a graphical representation showing MGC1136 expression in IGROV, TOV21G and CaOV3 cells, in the presence (+) or absence (−) of the methylation inhibitor 5AZA (1 μM 5AZA for 72 hours). MGC1136 expression is represented as a relative fold change in expression in each cell line following treatment with 5AZA, and adjusted for the level of the housekeeping gene GAPDH. Experiments were performed as described in the legend for FIG. 5.
However, expression of MGC1136 is not increased in TOV21 G cells (clear cell ovarian cancer) following treatment with the methylation inhibitor 5AZA. Thus, loss of MGC1136 expression by methylation of the MGC1136 promoter may be restricted to particular histological phenotypes of epithelial ovarian cancer.

- expression of KIAA1983 following treatment (KIAA1983 mRNA expression; normal ovarian cells (non-transformed HOSE 6-3 control)): note modulated
Compound: Nc1ncn([C@H]2C[C@H](O)[C@@H](CO)O2)c(=O)n1 [5-AZA, 5-aza-2′deoxycytodine]
- expression of KIAA1983 mRNA following treatment (KIAA1983 mRNA expression; epithelial ovarian cancer cell lines having reduced expression of KIAA1983 (IGROV1, TOV21G, OV90, CAOV3)): removes the block in expression of KIAA1983 mRNA
- expression of MGC1136 following treatment (MGC1136 expression; CaOV3 cell line (serous epithelial ovarian cancer)): marked increase in expression of MGC1136
- expression of MGC1136 following treatment (MGC1136 expression; IGROV cell line (serous epithelial ovarian cancer)): marked increase in expression of MGC1136
- expression of MGC1136 following treatment (MGC1136 expression; TOV21 G cells (clear cell ovarian cancer)): not increased
